Ends that are not written are not given here.
How the values were obtained:
HepG2 cells = assay: MTT cell viability of HepG2 cells; conditions: for Effect on the viability of HepG2 cells: MTT, peptide 0.01–0.1 mg/mL
Protocol: The HepG2 cells were cultured in DMEM (Gibco, New York, NY, USA) containing 10% (v/v) fetal bovine serum (HyClone, Logan, UT, USA) and 1% (v/v) penicillin/streptomycin (Gibco, New York, NY, USA) at 37 °C and 5% CO2.
The cells were passaged every 2 days, with a passage ratio of 1:2 when the cells grew to more than 80% confluence. Then, the HepG2 cells were distributed in 96-well culture plates at a density of 2.5 × 10^4 cells per well. When the cells were cultured for 24 h in DMEM medium, the medium was removed and replaced with a new medium containing various concentrations of H2O2 (100 mM, 300 mM, 500 mM, 700 mM, 900 mM, and 1100 mM), and the control cells were grown in DMEM. MTT (3-(4,5-dimethylthiazol2-yl)-2,5-diphenyltetrazolium bromide; Sigma-Aldrich, St. Louis, MO, USA) was added to the wells and the cells were incubated for 2 h at 37 °C. Then, DMSO was added to the wells for dissolution of formazan granules produced by the live cells and the absorbance measurements were performed at 540 nm to ensure the half inhibitory concentration (IC50) of H2O2 [30].
The safe and harmless peptide concentrations were also determined by the above method. Different concentrations of peptides (0.01 mg/mL, 0.02 mg/mL, 0.04 mg/mL, 0.06 mg/mL, 0.08 mg/mL, and 0.1 mg/mL) also act on cells, and cell viability was detected by MTT to screen out the safe and harmless peptide concentrations.

[1] = cited from earlier work
Text: Subsequently, the ABTS method was utilized to determine the total antioxidant activity of the stigma protein. […] We screened 289 saffron antioxidant peptides by comparing with the BIOPEP database. Among them, the saffron peptides with high abundance in the range from tetrapeptide to decapeptide were selected. […] It has been reported that hydrophobic a ...

Row | Molecule | Effect on the viability of HepG2 cells (HepG2 cells) | further results
1 | OO [H2O2] | – | Cell viability decline (HepG2 cells; HepG2, MTT, H2O2 300 mM): about 50%
2 | N[C@@H](Cc1ccccc1)C(=O)O [Phe] | – | Concentration at which ABTS scavenging activity is shown [1]: 10^−3 mol/L
3 | DGGSDYLGK [DGGSDYLGK] | no significant effects | –
4 | VDPYFNK [VDPYFNK] | no significant effects | –

— article PMC10967730, “Identification and Functional Validation of Two Novel Antioxidant Peptides in Saffron” (Antioxidants, 2024)
